± gives the standard deviation of the averaged measurements.
Experiments:
Assay in all cases: level (log10 ratio to DMSO vehicle control); higher = higher biomarker level / cell amount than vehicle control
Conditions in all cases: in DMSO
[1] = compound: O=C(O)C(F)(F)C(F)(F)OC(F)(F)F [Perfluoro-3-methoxypropanoic acid]
Protocol: (§1)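 BioMAP Diversity Plus panel of 12 human primary cell co-culture systems (3C, 4H, LPS, SAg, BT, BF4T, BE3C, CASM3C, HDF3CGF, KF3CT, MyoF, Mphg). Compounds were added 1 h before stimulation and left for 24 h (MyoF 48 h; BT 72 h for soluble read-outs or 6 d for IgG). Biomarkers were read by ELISA, cytotoxicity by SRB, PBMC viability and proliferation by Alamar Blue. Each well value was divided by the mean of 8 DMSO control wells on the same plate and log10 transformed; duplicate blinded samples were tested at 4 concentrations.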

[2] = compound: COC(=O)CCC(F)(F)C(F)(F)C(F)(F)C(F)(F)F [Methyl 2H,2H,3H,3H-perfluoroheptanoate]
Protocol: as §1

[3] = compound: C=CC(F)(F)C(F)(F)C(F)(F)C(F)(F)C(F)(F)C(F)(F)C(F)(F)C(F)(F)C=C [1,8-Divinylperfluorooctane]
Protocol: as §1

[4] = compound: FC(F)(F)C(F)(F)C(F)(F)C(F)(F)C(F)(F)C(F)(F)C(F)(F)C(F)(F)CCS [2-(Perfluorooctyl)ethanthiol]
Protocol: as §1

[5] = compound: C=CC(=O)OCC(F)(F)C(F)(F)C(F)(F)C(F)(F)C(F)(F)C(F)(F)C(F)(F)F [1H,1H-Perfluorooctyl acrylate]
Protocol: as §1

[6] = compound: OCC(F)(F)OC(F)(F)C(F)(F)OC(F)(F)CO [1H,1H,8H,8H-Perfluoro-3,6-dioxaoctane-1,8-diol]
Protocol: as §1

[7] = compound: O=S(=O)(O)C(F)(F)C(F)(F)C(F)(F)C(F)(F)C(F)(F)C(F)(F)F [Perfluorohexanesulfonic acid]
Protocol: as §1

Test System	level (log10) ([1]; 6700 nM)	level (log10) ([1]; 20000 nM)	level (log10) ([1]; 60000 nM)	level (log10) ([2]; 6700 nM)	level (log10) ([2]; 20000 nM)	level (log10) ([2]; 60000 nM)	level (log10) ([3]; 6700 nM)	level (log10) ([3]; 20000 nM)	level (log10) ([4]; 6700 nM)	level (log10) ([4]; 20000 nM)	level (log10) ([5]; 6700 nM)	level (log10) ([5]; 20000 nM)	level (log10) ([5]; 60000 nM)	level (log10) ([6]; 6700 nM)	level (log10) ([6]; 20000 nM)	level (log10) ([6]; 60000 nM)	level (log10) ([7]; 6700 nM)	level (log10) ([7]; 20000 nM)	level (log10) ([7]; 60000 nM)
4H:SRB	-0.013 ± 0.0071	-0.004 ± 0.0071	0.0015 ± 0.033	0.0075 ± 0.022	0.006 ± 0.0057	-0.017 ± 0.0099	0.002 ± 0.0057	0.0125 ± 0.00071	0.0085 ± 0.011	-0.003 ± 0.0057	0.003 ± 0.016	0.0015 ± 0.013	0.0045 ± 0.0064	-0.014 ± 0.0099	-0.0195 ± 0.015	-0.047 ± 0.0071	-0.0245 ± 0.015	-0.025 ± 0.017	-0.045 ± 0.023
LPS:SRB	0.006 ± 0.0085	0.011 ± 0.0099	0.026 ± 0.0028	0.006 ± 0.023	0.001 ± 0.011	-0.0045 ± 0.011	-0.005 ± 0.0057	0.013 ± 0.0099	0.0025 ± 0.0078	-0.003 ± 0.014	-0.006 ± 0.0028	-0.0095 ± 0.0078	-0.012 ± 0.016	-0.0075 ± 0.012	-0.0125 ± 0.0092	-0.0205 ± 0.005	-0.0075 ± 0.013	-0.0115 ± 0.00071	-0.0175 ± 0.018
LPS:CD141/Thrombomodulin	0.0175 ± 0.036	0.0075 ± 0.022	0.0255 ± 0.028	-0.0375 ± 0.037	-0.0325 ± 0.0092	-0.0255 ± 0.0078	-0.0025 ± 0.00071	0.011 ± 0.021	0.0055 ± 0.0064	-0.0385 ± 0.028	-0.0365 ± 0.0021	-0.052 ± 0.013	-0.052 ± 0.011	0.004 ± 0.021	0.021 ± 0.018	-0.002 ± 0.014	-0.007 ± 0.0057	-0.0065 ± 0.013	-0.008 ± 0.0014
LPS:CD69	-0.0065 ± 0.013	-0.02 ± 0.013	0.013 ± 0.025	-0.019 ± 0.047	0.0115 ± 0.042	-0.01 ± 0.052	-0.0135 ± 0.011	-0.008 ± 0.014	0.019 ± 0.024	0.0125 ± 0.043	0.0025 ± 0.0021	-0.0095 ± 0.0064	-0.0305 ± 0.005	0.0335 ± 0.083	0.033 ± 0.042	0.0025 ± 0.029	-0.0125 ± 0.049	-0.0035 ± 0.047	-0.036 ± 0.052
